Legend:
[1] = system: chloramphenicol-resistant strain of Salmonella enteritidis; assay: Therapeutical test in mice infected with chloramphenicol-resistant Salmonella enteritidis (Example 6); format: in vivo, male ICR-JCL mouse; settings: chloramphenicol alone 50 mg/kg i.p., 5 days after administration
Method: The following experiment was then carried out on the present substance having the above-mentioned properties.
The chloramphenicol-resistant strain of Salmonella enteritidis were obtained as in Example 1.
A quarter milli-liter of suspension of the aforementioned chloramphenicol-resistant bacterial strain in Tryptosoy-bouillon (see Example 2) including 5% of mucin was intraperitoneally inoculated to each mouse of 5 groups of male ICR-JCL mouse, the group consisting of 10 mice. The inoculum was 1×10^8 cells/mouse. Twenty five hours after the inoculation, 50 mg/kg of chloramphenicol was administered intraperitoneally. 500 mg/kg of the present substance was further given orally to another group. The rate of survival 5 days after the administration was 40% in the group where chloramphenicol alone was administered, while it was 80% in the group where the antibiotic was given in combination with the present substance.

Salmonella enteritidis = assay: Minimum growth inhibiting concentration, agar plate method; format: cell-based; settings: for Minimum growth inhibiting concentration: strain resistant to the respective drug
Method: (§1) The drug-resistant strains of bacterial species were obtained in the manner described below according to the concentration gradient plate culture (see "Chemotherapeutics and Resistant Bacteria", 1970, By Chikara Watanabe, Asakura Shoten).
(§2) The agar plates with drug concentration gradient ranging from 10 to 100 μg/ml were prepared, and each strain of the bacterial species to be tested was streaked or smeared. These plates were kept at 37° C. for several days and the colony formed in the high concentration area was isolated and again similarly inoculated to the plates. Such operation was repeated several times to obtain the bacterial strains resistant to the respective drugs.
(§3) The drug sensitivity of the drug-resistant strains and that of the original strains (sensitive strains) were compared by way of the minimum growth inhibiting concentration (hereinafter abbreviated as MIC) according to the Standard Method of the Japanese Chemotherapeutical Association (see "Chemotherapy" Vol. 22, No. 6, 1126 (1974), by MIC Determination Method Reform Committee). More specifically, double diluted systems of each drug were prepared and they were mixed with the heart-infusion agar medium (Nippon Eiyo Kagaku Co., Ltd.) to form the agar plates. Then a loopful of each strain, which had been cultured at 37° C. in Trypto-soy bouillon (Nippon Eiyo Kagaku Co., Ltd.) for 18 hr. was smeared on each the plate, and after culturing for 18 hr. at 37° C., the growth of the strain on each plate was examined.
(§4) MIC has apparently been reduced to half the level or less before addition of the present substance as will be seen in Table 3 of EXAMPLE 1. The amount of the present substance added is more than 10 μg/ml, preferably more than 100 μg/ml. The pH of the medium was maintained at 7.2±0.1 so that MIC would not be affected by pH of the medium.
(§5) Specimens of the drug-resistant bacterial strain were obtained according to the aforementioned concentration-gradient plate culture by using Staphylococcus aureus, Streptococcus faecalis, Escherichia coli, Salmonella enteritidis, Klebsiella pneumoniae and Pseudomonas aeruginosa. The MICs of the original bacterial strains and those of the bacterial strains which have developed resistance to the respective antibiotics are summarized in Table 2.

Escherichia coli = assay: as above; format: cell-based; settings: for Minimum growth inhibiting concentration: strain resistant to the respective drug
Method: as §1, §2, §3, §4, §5

Klebsiella pneumoniae = assay: as above; format: cell-based; settings: for Minimum growth inhibiting concentration: strain resistant to the respective drug
Method: as §1, §2, §3
(§6) The amount of the present substance added is more than 10 μg/ml, preferably more than 100 μg/ml. The pH of the medium was maintained at 7.2±0.1 so that MIC would not be affected by pH of the medium.
(§7) Specimens of the drug-resistant bacterial strain were obtained according to the aforementioned concentration-gradient plate culture by using Staphylococcus aureus, Streptococcus faecalis, Escherichia coli, Salmonella enteritidis, Klebsiella pneumoniae and Pseudomonas aeruginosa.

Staphylococcus aureus = assay: as above; format: cell-based; settings: for Minimum growth inhibiting concentration: strain resistant to the respective drug
Method: as §1, §2, §3, §6, §7

[2] = system: Streptococcus faecalis resistant to erythromycin; assay: Therapeutical treatment of mice infected with erythromycin-resistant Streptococcus faecalis (Example 9); format: in vivo, male ICR-JCL mice; settings: only erythromycin 50 mg/kg oral, 7th day
Method: Experiments of therapeutical treatment of animals infected with an erythromycin-resistant bacterial strain were carried out using the present substance, i.e., a nitrogen-containing polysaccharide prepared by the procedures described in Example 1.
After keeping the mice under usual conditions for 6 days, the rate of survival of each mouse was observed on 7th day.

[3] = system: streptomycin resistant strain of Klebsiella pneumoniae; assay: Therapeutical test in mice infected with streptomycin-resistant Klebsiella pneumoniae (Example 7); format: in vivo, male ICR-JCL mouse; settings: streptomycin singly 100 mg/kg i.p., 6 days after administration
Method: The streptomycin resistant strain of Klebsiella pneumoniae was obtained by the procedure of Exampe 1 and 0.25 ml of a Trypto-soy bouillon (see Example 2) containing 5% of mucin and the bacterial strain was intraperitoneally inoculated to each mouse of 2 groups of male ICR-JCL mouse, the group consisting of 10 mice at the rate of 1×10^8 cells per mouse. Three hours after this inoculation, 100 mg/kg of streptomycin was intraperitoneally administered. Another group was further given 120 mg/kg of the present substance, obtained by the description in Example 6, via intraperitoneal administration. The survival rate 6 days after administration was 50% in the group where streptomycin was used singly, but it was as high as 80% in the group where the present substance was used with streptomycin.

Streptococcus faecalis = assay: Minimum growth inhibiting concentration, agar plate method; format: cell-based; settings: for Minimum growth inhibiting concentration: strain resistant to the respective drug
Method: as §1, §2, §3, §4, §5

[4] = system: colistin-resistant strain of Pseudomonas aeruginosa; assay: Therapeutical test in mice infected with colistin-resistant Pseudomonas aeruginosa (Example 8); format: in vivo, male ICR-JCL mice; settings: single colistin 190 mg/kg i.p., 6 days after administration
Method: A quarter milli-liter of a suspension of the colistin-resistant strain of Pseudomonas aeruginosa cultured by the same procedure in Example 1 in Trypto-soy bouillon (see Example 2) including 5% of mucin was intraperitoneally inoculated to each mouse of 2 groups of male ICR-JCL mice (body weight: 22±1 g, 10 mice a group) at the rate of 1×10^8 cells/mouse. […] The present substance obtained by the same procedure as in Example 6 was also orally administered at a dose of 1,500 mg/kg.

Pseudomonas aeruginosa = assay: Minimum growth inhibiting concentration, agar plate method; format: cell-based; settings: for Minimum growth inhibiting concentration: strain resistant to the respective drug
Method: as §1, §2, §3, §6, §7

[5] = strain resistant to the respective antibiotic (Table 2)
[6] = present substance added at 100 μg/ml
[7] = present substance not added (Table 3)
[8] = present substance added at 1000 μg/ml

Compound | Minimum growth inhibiting concentration (MIC) (Salmonella enteritidis; original strain) | Minimum growth inhibiting concentration (MIC) (Salmonella enteritidis; [5]) | Minimum growth inhibiting concentration (Salmonella enteritidis; [6]) | Minimum growth inhibiting concentration (Salmonella enteritidis; [7]) | Minimum growth inhibiting concentration (MIC) (Escherichia coli; original strain) | Minimum growth inhibiting concentration (MIC) (Escherichia coli; [5]) | Minimum growth inhibiting concentration (Escherichia coli; [6]) | Minimum growth inhibiting concentration (Escherichia coli; [7]) | Minimum growth inhibiting concentration (MIC) (Klebsiella pneumoniae; original strain) | Minimum growth inhibiting concentration (MIC) (Klebsiella pneumoniae; [5]) | Minimum growth inhibiting concentration (Klebsiella pneumoniae; [6]) | Minimum growth inhibiting concentration (Klebsiella pneumoniae; [7]) | Minimum growth inhibiting concentration (MIC) (Staphylococcus aureus; original strain) | Minimum growth inhibiting concentration (MIC) (Staphylococcus aureus; [5]) | Minimum growth inhibiting concentration (Staphylococcus aureus; [6]) | Minimum growth inhibiting concentration (Staphylococcus aureus; [7]) | Minimum growth inhibiting concentration (Staphylococcus aureus; [8]) | further results
O=C(N[C@H](CO)[C@H](O)c1ccc([N+](=O)[O-])cc1)C(Cl)Cl [CP, Chlorampheniocol] | 0.8 µg/mL | 12.5 µg/mL | 3.2 µg/mL | 12.5 µg/mL | 1.6 µg/mL | 50 µg/mL | 12.5 µg/mL | 50 µg/mL | 0.8 µg/mL | 25 µg/mL | 6.3 µg/mL | 25 µg/mL | 3.1 µg/mL | 25 µg/mL | 6.3 µg/mL | 25 µg/mL | – | rate of survival [1]: 40%
CC[C@H]1OC(=O)[C@H](C)[C@@H](O[C@H]2C[C@@](C)(OC)[C@@H](O)[C@H](C)O2)[C@H](C)[C@@H](O[C@@H]2O[C@H](C)C[C@H](N(C)C)[C@H]2O)[C@](C)(O)C[C@@H](C)C(=O)[C@H](C)[C@@H](O)[C@]1(C)O [EM, Erythromycin] | > 100 µg/mL | – | – | – | > 100 µg/mL | – | – | – | – | > 100 µg/mL | – | – | 0.4 µg/mL | – | – | – | 3.2 µg/mL | rate of survival [2]: 50%
CC1(C)S[C@@H]2[C@H](NC(=O)Cc3ccccc3)C(=O)N2[C@H]1C(=O)O [PG, Penicillin G] | 6.3 µg/mL | > 100 µg/mL | – | – | 12.5 µg/mL | > 100 µg/mL | – | – | 6.3 µg/mL | > 100 µg/mL | – | – | 0.025 µg/mL | 12.5 µg/mL | – | 12.5 µg/mL | 1.6 µg/mL | –
[H]/N=C(/N)N[C@H]1[C@H](O)[C@@H](O)[C@H](O[C@@H]2O[C@@H](C)[C@](O)(C=O)[C@H]2O[C@@H]2O[C@@H](CO)[C@H](O)[C@@H](O)[C@@H]2NC)[C@@H](N/C(N)=N\[H])[C@@H]1O [SM, Streptomycin] | 25 µg/mL | > 100 µg/mL | – | – | 3.1 µg/mL | 100 µg/mL | – | 100 µg/mL | 1.6 µg/mL | 100 µg/mL | – | 100 µg/mL | 1.6 µg/mL | > 100 µg/mL | – | – | – | Minimum growth inhibiting concentration (Escherichia coli; [8]): 25 µg/mL; survival rate [3]: 50%; Minimum growth inhibiting concentration (Klebsiella pneumoniae; [8]): 25 µg/mL
CN(C)[C@@H]1C(O)=C(C(N)=O)C(=O)[C@@]2(O)C(O)=C3C(=O)c4c(O)cccc4[C@@](C)(O)[C@H]3C[C@@H]12 [TC, Tetracycline] | 1.6 µg/mL | 12.5 µg/mL | 6.3 µg/mL | 12.5 µg/mL | 3.1 µg/mL | 25 µg/mL | 6.3 µg/mL | 25 µg/mL | 1.6 µg/mL | 25 µg/mL | 12.5 µg/mL | 25 µg/mL | 0.8 µg/mL | 25 µg/mL | 3.2 µg/mL | 25 µg/mL | – | Minimum growth inhibiting concentration (MIC) (Streptococcus faecalis; original strain): 0.4 µg/mL; Minimum growth inhibiting concentration (MIC) (Streptococcus faecalis; [5]): 25 µg/mL; Minimum growth inhibiting concentration (Streptococcus faecalis; [6]): 6.3 µg/mL; Minimum growth inhibiting concentration (Streptococcus faecalis; [7]): 25 µg/mL
Colistin [CL] | – | – | – | – | – | – | – | – | – | – | – | – | – | – | – | – | – | rate of survival [4]: 40%; Minimum growth inhibiting concentration (MIC) (Pseudomonas aeruginosa; [5]): 200 µg/mL; Minimum growth inhibiting concentration (Pseudomonas aeruginosa; [8]): 100 µg/mL; Minimum growth inhibiting concentration (Pseudomonas aeruginosa; [7]): 200 µg/mL

From patent publication US4268505A, “Pharmaceutical composition comprising a nitrogen-containing polysaccharide and an antibiotic agent, and a method of treating an infectious disease therewith” (priority 1979, dated 1981)
